For 21 compounds, inhibition results are on record in patent US20250026778A1 (TIUMBIO CO., LTD., priority 2021, published 2025).

The structures appear in SMILES notation.

T1 sequence (P17931 whole entry): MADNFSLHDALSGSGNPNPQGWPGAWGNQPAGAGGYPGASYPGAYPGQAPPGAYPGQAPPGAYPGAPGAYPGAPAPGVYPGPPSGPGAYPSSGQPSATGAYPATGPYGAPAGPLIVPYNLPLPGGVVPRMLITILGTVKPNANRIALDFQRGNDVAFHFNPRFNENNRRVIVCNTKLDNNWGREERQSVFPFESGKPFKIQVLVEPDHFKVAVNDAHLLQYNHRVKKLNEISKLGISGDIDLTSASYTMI

The first assay addresses T1, his-galectin-3 (Homo sapiens, UniProt P17931).
T1 construct: purchased Abcam
As to the kind of experiment: TR-FRET assay (in vitro galectin-3 binding inhibitory activity test). As to conditions: Table 1; compound at 20 μM; 60 nM his-galectin-3, 15 nM biotin-ASF; read-out: % Inhibitory activity (at 20 μM). The gist of the method: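 Compound is premixed with his-galectin-3 (60 nM final), then biotin-ASF (15 nM), Tb anti-His antibody (2 nM) and streptavidin-d2 (20 nM) are added. After at least 3.5 hours at RT in HEPES/NaCl buffer with Tween 20 and BSA, TR-FRET is read at 615/665 nm. DMSO serves as the uninhibited control, ASF omission as background.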
Consider `O=C(O[C@@H]1[C@@H](n2cc(-c3cc(F)c(F)c(F)c3)nn2)[C@@H](O)[C@@H](CO)O[C@@]12CCCO2)c1cccc(F)c1F` [Compound A71, (5S,7R,8R,9S,10R)-8-hydroxy-7-(hydroxymethyl)-9-(4-(3,4,5-trifluorophenyl)-1H-1,2,3-triazol-1-yl)-1,6-dioxaspiro[4.5]decan-10-yl 2,3-difluorobenzoate], for which the inhibition at 20 µM is 25 to 50%.

For the compound `OC[C@H]1O[C@]2(OCC[C@H]2NCc2cc(Cl)ccc2O)[C@H](O)[C@@H](n2cc(-c3cc(F)c(F)c(F)c3)nn2)[C@H]1O` [Compound A126, (4R,5S,7R,8R,9S,10R)-4-((5-chloro-2-hydroxybenzyl)amino)-7-(hydroxymethyl)-9-(4-(3,4,5-trifluorophenyl)-1H-1,2,3-triazol-1-yl)-1,6-dioxaspiro[4.5]decane-8,10-diol], the inhibition at 20 µM fell in the range of 25 to 50%.

For the compound `OC[C@H]1O[C@@]2(CCCCO2)[C@H](OCc2cccc(C(F)(F)F)c2)[C@@H](n2cc(-c3cc(F)c(F)c(F)c3)nn2)[C@H]1O` [Compound A49, (2R,3R,4S,5R,6S)-2-(hydroxymethyl)-5-((3-(trifluoromethyl)benzyl)oxy)-4-(4-(3,4,5-trifluorophenyl)-1H-1,2,3-triazol-1-yl)-1,7-dioxaspiro[5.5]undecan-3-ol], the inhibition at 20 µM lay within 25 to 50%.

For the compound `O=C(N[C@@H]1CCO[C@]12O[C@H](CO)[C@H](O)[C@H](n1cc(-c3cc(F)c(F)c(F)c3)nn1)[C@H]2O)c1ccc(-c2ccccc2)cc1` [Compound A131, N-((4R,5S,7R,8R,9S,10R)-8,10-dihydroxy-7-(hydroxymethyl)-9-(4-(3,4,5-trifluorophenyl)-1H-1,2,3-triazol-1-yl)-1,6-dioxaspiro[4.5]decan-4-yl)-[1.1′ biphenyl]-4-carboxamide], the inhibition at 20 µM is under 25%. In the case of `OC[C@H]1O[C@@]2(CCCN(Cc3cccc(Cl)c3)C2)[C@H](O)[C@@H](n2cc(-c3cc(F)c(F)c(F)c3)nn2)[C@H]1O` [Compound A143, (2R,3R,4S,5R,6R)-8-(3-chlorobenzyl)-2-(hydroxymethyl)-4-(4-(3,4,5-trifluorophenyl)-1H-1,2,3-triazol-1-yl)-1-oxa-8-azaspiro[5.5]undecane-3,5-diol], the inhibition at 20 µM is under 25%. On the same count and under the same terms, to `OC[C@H]1O[C@@]2(CCCO2)[C@H](OCc2cccnc2)[C@@H](n2cc(-c3cc(F)c(F)c(F)c3)nn2)[C@H]1O` [Compound A16, (5S,7R,8R,9S,10R)-7-(hydroxymethyl)-10-(pyridin-3-ylmethoxy)-9-(4-(3,4,5-trifluorophenyl)-1H-1,2,3-triazol-1-yl)-1,6-dioxaspiro[4.5]decan-8-ol acetate] belongs 25 to 50%. As for `OC[C@H]1O[C@]2(OCC[C@H]2NCc2cccc(Cl)c2O)[C@H](O)[C@@H](n2cc(-c3cc(F)c(F)c(F)c3)nn2)[C@H]1O` [Compound A127, (4R,5S,7R,8R,9S,10R)-4-((3-chloro-2-hydroxybenzyl)amino)-7-(hydroxymethyl)-9-(4-(3,4,5-trifluorophenyl)-1H-1,2,3-triazol-1-yl)-1,6-dioxaspiro[4.5]decane-8,10-diol], the inhibition at 20 µM was in the range of 50 to 75%. Take `OC[C@H]1O[C@@]2(CCCCO2)[C@H](OCc2ccccc2)[C@@H](n2cc(-c3cc(F)c(F)c(F)c3)nn2)[C@H]1O` [Compound A25, (2R,3R,4S,5R,6S)-5-(benzyloxy)-2-(hydroxymethyl)-4-(4-(3,4,5-trifluorophenyl)-1H-1,2,3-triazol-1-yl)-1,7-dioxaspiro[5.5]undecan-3-ol]: the inhibition at 20 µM is 25 to 50%. Regarding `O=C(CO[C@@H]1[C@@H](n2cc(-c3cc(F)c(F)c(F)c3)nn2)[C@@H](O)[C@@H](CO)O[C@@]12CCCO2)N1CC(F)(F)C1` [Compound A33, 1-(3,3-difluoroazetidin-1-yl)-2-(((5S,7R,8R,9S,10R)-8-hydroxy-7-(hydroxymethyl)-9-(4-(3,4,5-trifluorophenyl)-1H-1,2,3-triazol-1-yl)-1,6-dioxaspiro[4.5]decan-10-yl)oxy)ethanone], the inhibition at 20 µM lay within 25 to 50%.

Staying with this assay, now noted: Table 2; compound at 20 μM; 60 nM his-galectin-3, 15 nM biotin-ASF; read-out: % Inhibitory activity (at 20 μM).
Turning to `O=C(c1ccncc1)N1CCC[C@]2(C1)O[C@H](CO)[C@H](O)[C@H](n1cc(-c3cc(F)c(F)c(F)c3)nn1)[C@H]2O` [Compound A189, ((2R,3R,4S,5R,6R)-3,5-dihydroxy-2-(hydroxymethyl)-4-(4-(3,4,5-trifluorophenyl)-1H-1,2,3-triazol-1-yl)-1-oxa-8-azaspiro[5.5]undecan-8-yl)(pyridin-4-yl)methanone], the inhibition at 20 µM was under 25%. Consider `O=C(N[C@@H]1CCO[C@]12O[C@H](CO)[C@H](O)[C@H](n1cc(-c3cc(F)c(F)c(F)c3)nn1)[C@H]2O)c1csc2ccc(Cl)cc12` [Compound A177, 5-chloro-N-((4R,5S,7R,8R,9S,10R)-8,10-dihydroxy-7-(hydroxymethyl)-9-(4-(3,4,5-trifluorophenyl)-1H-1,2,3-triazol-1-yl)-1,6-dioxaspiro[4.5]decan-4-yl)benzo[b]thiophene-3-carboxamide], for which the inhibition at 20 µM is over 75%.

Take `O=C(N[C@@H]1CCO[C@]12O[C@H](CO)[C@H](O)[C@H](n1cc(-c3cc(F)c(F)c(F)c3)nn1)[C@H]2O)c1cccc2occc12` [Compound A230, N-((4R,5S,7R,8R,9S,10R)-8,10-dihydroxy-7-(hydroxymethyl)-9-(4-(3,4,5-trifluorophenyl)-1H-1,2,3-triazol-1-yl)-1,6-dioxaspiro[4.5]decan-4-yl)benzofuran-4-carboxamide]: the inhibition at 20 µM is 50 to 75%. For the compound `O=C(N[C@@H]1CCO[C@]12O[C@H](CO)[C@H](O)[C@H](n1cc(-c3cc(F)c(F)c(F)c3)nn1)[C@H]2O)c1cccc2cnccc12` [Compound A247, N-((4R,5S,7R,8R,9S,10R)-8,10-dihydroxy-7-(hydroxymethyl)-9-(4-(3,4,5-trifluorophenyl)-1H-1,2,3-triazol-1-yl)-1,6-dioxaspiro[4.5]decan-4-yl)isoquinoline-5-carboxamide], the inhibition at 20 µM was over 75%. For the compound `O=C(N[C@@H]1CCO[C@]12O[C@H](CO)[C@H](O)[C@H](n1cc(-c3cc(F)c(F)c(F)c3)nn1)[C@H]2O)c1c[nH]c2cccc(Cl)c12` [Compound A232, 4-chloro-N-((4R,5S,7R,8R,9S,10R)-8,10-dihydroxy-7-(hydroxymethyl)-9-(4-(3,4,5-trifluorophenyl)-1H-1,2,3-triazol-1-yl)-1,6-dioxaspiro[4.5]decan-4-yl)-1H-indole-3-carboxamide], the inhibition at 20 µM is over 75%.

As for `O=C(Cc1cccc(Oc2ccccc2)c1)N[C@@H]1CCO[C@]12O[C@H](CO)[C@H](O)[C@H](n1cc(-c3cc(F)c(F)c(F)c3)nn1)[C@H]2O` [Compound A183, N-((4R,5S,7R,8R,9S,10R)-8,10-dihydroxy-7-(hydroxymethyl)-9-(4-(3,4,5-trifluorophenyl)-1H-1,2,3-triazol-1-yl)-1,6-dioxaspiro[4.5]decan-4-yl)-2-(3-phenoxyphenyl)acetamide], the inhibition at 20 µM was under 25%. Still for that read-out and setting: to `O=C(N[C@@H]1CCO[C@]12O[C@H](CO)[C@H](O)[C@H](n1cc(-c3cc(F)c(F)c(F)c3)nn1)[C@H]2O)c1cccc(-c2cccc(F)c2)c1` [Compound A165, N-((4R,5S,7R,8R,9S,10R)-8,10-dihydroxy-7-(hydroxymethyl)-9-(4-(3,4,5-trifluorophenyl)-1H-1,2,3-triazol-1-yl)-1,6-dioxaspiro[4.5]decan-4-yl)-3′-fluoro-[1,1′-biphenyl]-3-carboxamide] belongs 50 to 75%; to `CC1CO[C@@]2(C1)O[C@H](CO)[C@H](O)[C@H](n1cc(-c3cc(F)c(F)c(F)c3)nn1)[C@H]2OC(=O)c1ccccn1` (single isomer, unassigned) [Compound A235], 50 to 75%.

Staying with this assay, now noted: Table 3, found values; compound at 20 μM; 60 nM his-galectin-3, 15 nM biotin-ASF; read-out: % Inhibitory activity (at 20 μM).
Consider `O=C(N[C@@H]1CCO[C@]12O[C@H](CO)[C@H](O)[C@H](n1cc(-c3cc(F)c(F)c(F)c3)nn1)[C@H]2O)c1cccc2occc12` [Compound A230, N-((4R,5S,7R,8R,9S,10R)-8,10-dihydroxy-7-(hydroxymethyl)-9-(4-(3,4,5-trifluorophenyl)-1H-1,2,3-triazol-1-yl)-1,6-dioxaspiro[4.5]decan-4-yl)benzofuran-4-carboxamide], for which the inhibition at 20 µM was 66.5%.

The same assay, now with this note: read-out: % Inhibitory activity (at 20 μM), Table 1; compound at 20 μM; 60 nM his-galectin-3, 15 nM biotin-ASF.
On to `OC[C@H]1O[C@@]2(CCCO2)C(O)[C@@H](n2cc(-c3cc(F)c(F)c(F)c3)nn2)[C@H]1O` (stereo in doubt) [Compound A41, (5S,7R,8R,9S,10R)-7-(hydroxymethyl)-9-(4-(3,4,5-trifluorophenyl)-1H-1,2,3-triazol-1-yl)-1,6-dioxaspiro[4.5]decane-8,10-diol], for which the inhibition at 20 µM was under 25%.

Take `O=C(O[C@@H]1[C@@H](n2cc(-c3cc(F)c(F)c(F)c3)nn2)[C@@H](O)[C@@H](CO)O[C@@]12CCCO2)c1ccccc1F` [Compound A69, (5S,7R,8R,9S,10R)-8-hydroxy-7-(hydroxymethyl)-9-(4-(3,4,5-trifluorophenyl)-1H-1,2,3-triazol-1-yl)-1,6-dioxaspiro[4.5]decan-10-yl 2-fluorobenzoate]: the inhibition at 20 µM was in the range of 25 to 50%. Turning to `O=C(Cc1ccccc1)N[C@@H]1CCO[C@]12O[C@H](CO)[C@H](O)[C@H](n1cc(-c3cc(F)c(F)c(F)c3)nn1)[C@H]2O` [Compound A146, N-((4R,5S,7R,8R,9S,10R)-8,10-dihydroxy-7-(hydroxymethyl)-9-(4-(3,4,5-trifluorophenyl)-1H-1,2,3-triazol-1-yl)-1,6-dioxaspiro[4.5]decan-4-yl)-2-phenylacetamide], the inhibition at 20 µM fell in the range of 25 to 50%. `Cc1ccc(S(=O)(=O)O[C@@H]2[C@@H](n3cc(-c4cc(F)c(F)c(F)c4)nn3)[C@@H](O)[C@@H](CO)O[C@@]23CCCO3)cc1` [Compound A59, (5S,7R,8R,9S,10R)-8-hydroxy-7-(hydroxymethyl)-9-(4-(3,4,5-trifluorophenyl)-1H-1,2,3-triazol-1-yl)-1,6-dioxaspiro[4.5]decan-10-yl 4-methylbenzenesulfonate]: the inhibition at 20 µM lay in the range of 25 to 50%.

The same assay, now with this note: read-out: % Inhibitory activity (at 20 μM), Table 3, found values; compound at 20 μM; 60 nM his-galectin-3, 15 nM biotin-ASF.
Turning to `O=C(Cc1ccccc1)N[C@@H]1CCO[C@]12O[C@H](CO)[C@H](O)[C@H](n1cc(-c3cc(F)c(F)c(F)c3)nn1)[C@H]2O` [Compound A146, N-((4R,5S,7R,8R,9S,10R)-8,10-dihydroxy-7-(hydroxymethyl)-9-(4-(3,4,5-trifluorophenyl)-1H-1,2,3-triazol-1-yl)-1,6-dioxaspiro[4.5]decan-4-yl)-2-phenylacetamide], the inhibition at 20 µM stood at 40.7%.
